According to US20210139484A1, “DIHYDROISOQUINOLINE-2(1H)-CARBOXAMIDE AND RELATED COMPOUNDS AND THEIR USE IN TREATING MEDICAL CONDITIONS” (GOSSAMER BIO SERVICES, INC., priority 2018, published 2021):

Target: T1, human HPK1 protein (Homo sapiens, UniProt Q92918)
T1 construct: recombinant human HPK1 protein (a.a. 1-346) was expressed in Sf9 insect cells; GST (N); purchased Signalchem M23-11G; host or cells: Sf9 insect cells (baculovirus)
T1 sequence (Q92918 1-346): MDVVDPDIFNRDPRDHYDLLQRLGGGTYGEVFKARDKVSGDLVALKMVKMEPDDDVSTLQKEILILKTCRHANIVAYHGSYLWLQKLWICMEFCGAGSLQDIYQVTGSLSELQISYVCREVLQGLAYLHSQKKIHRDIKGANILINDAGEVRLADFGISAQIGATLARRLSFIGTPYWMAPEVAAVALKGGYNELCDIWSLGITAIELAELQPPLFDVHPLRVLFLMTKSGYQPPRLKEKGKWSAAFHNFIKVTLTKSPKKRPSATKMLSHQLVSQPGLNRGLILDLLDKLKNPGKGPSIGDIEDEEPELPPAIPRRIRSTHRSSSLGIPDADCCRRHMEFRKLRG
Experiment: Human HPK1 protein TR-FRET assay
Type: biochemical
Details: 1 mM ATP
Outline: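 Read-out was TR-FRET using Eu-labeled anti-phospho-CREB (Ser133) antibody, with the 665/615 nm signal ratio normalised to DMSO-only wells and fitted by a 4-parameter logistic model for IC50. Reactions held 10 nM Sf9-expressed GST-HPK1 (a.a. 1-346), 100 nM CREBtide and 1 mM ATP, run 60 minutes at room temperature, pH 7.5.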

SMILES	IC50 (Table 20)	IC50 (Table 19)
C[C@@H]1Cc2ccc(Oc3ccnc4[nH]c(C(=O)N(C)C)cc34)cc2CN1C(=O)Nc1ccc(CN2CCN(C)CC2)c(C(F)(F)F)c1 [XVI-1]	< 500 nM	–
C[C@@H]1Cc2ccc(Oc3ccnc4[nH]c(C5(O)CC5)cc34)cc2CN1C(=O)Nc1ccc(CN2CCN(C)CC2)c(C(F)(F)F)c1 [XVI-2]	< 500 nM	–
C[C@@H]1Cc2ccc(Oc3ccnc4[nH]c(C5(O)CC5)cc34)cc2CN1C(=O)Nc1cnc(CN2CCN(C)CC2)c(C(F)(F)F)c1 [XVI-3]	< 500 nM	–
C[C@@H]1Cc2ccc(Oc3c(F)cnc4[nH]c(-c5cnn(C)c5)cc34)cc2CN1C(=O)Nc1ccc(CN2CCN(C)CC2)c(C(F)(F)F)c1 [XVI-4]	< 500 nM	–
C[C@@H]1Cc2ccc(Oc3c(F)cnc4[nH]c(-c5cnn(C)c5)cc34)cc2CN1C(=O)Nc1cnc(CN2CCN(C)CC2)c(C(F)(F)F)c1 [XVI-5]	< 500 nM	–
C[C@@H]1Cc2ccc(Oc3ccnc4[nH]c(C(=O)N(C)C)cc34)cc2CN1C(=O)Nc1cnc(O[C@@H]2CCN(C)C[C@@H]2O)c(C(F)(F)F)c1 [XVI-6]	< 500 nM	–
C[C@@H]1Cc2ccc(Oc3ccnc4[nH]c(C(=O)N(C)C)cc34)cc2CN1C(=O)Nc1cnc(OC2CCN(C)CC2)c(C(F)(F)F)c1 [XVI-7]	< 500 nM	–
C[C@@H]1Cc2ccc(Oc3c(F)cnc4[nH]c(C5(O)CC5)cc34)cc2CN1C(=O)Nc1cnc(CN2CCN(C)CC2)c(C(F)(F)F)c1 [XVI-8]	< 500 nM	–
C[C@@H]1Cc2ccc(Oc3c(F)cnc4[nH]c(C5(O)CC5)cc34)cc2CN1C(=O)Nc1ccc(CN2CCN(C)CC2)c(C(F)(F)F)c1 [XVI-9]	< 500 nM	–
C[C@@H]1Cc2ccc(Oc3ccnc4[nH]c(C(=O)N(C)C)cc34)cc2CN1C(=O)Nc1cnc(CN2CCN(C)CC2)c(C(F)(F)F)c1 [XVI-10]	< 500 nM	–
CCC1CN(C(=O)Nc2ccc(CN3CCN(CC)CC3)c(C(F)(F)F)c2)Cc2cc(Nc3c(F)cnc4[nH]c(-c5cnn(C)c5)cc34)cnc21 (stereo not drawn) [XVII-1]	< 500 nM	–
CN1CCN(Cc2ncc(NC(=O)N3CCc4ccc(Nc5c(F)cnc6[nH]c(-c7cnn(C)c7)cc56)cc4C3)cc2C(F)(F)F)CC1 [XVII-2]	< 500 nM	–
CN1CCN(Cc2ccc(NC(=O)N3CCc4cc(F)c(Nc5c(F)cnc6[nH]c(-c7cnn(C)c7)cc56)cc4C3)cc2C(F)(F)F)CC1 [XVII-3]	< 500 nM	–
CN1CCN(Cc2ncc(NC(=O)N3CCc4cc(F)c(Nc5c(F)cnc6[nH]c(-c7cnn(C)c7)cc56)cc4C3)cc2C(F)(F)F)CC1 [XVII-4]	< 500 nM	–
CCN1CCN(Cc2ccc(NC(=O)N3Cc4cc(Oc5ccnc6[nH]c(C)cc56)c(C)nc4C(C)C3)cc2C(F)(F)F)CC1 (stereo not drawn) [XVIII-2]	< 500 nM	–
CN(C)C(=O)c1cc2c(Oc3ccc4c(c3)CN(C(=O)Nc3ccc(CN5CCNCC5)c(C(F)(F)F)c3)CC4)c(F)cnc2[nH]1 [XVIII-3]	< 500 nM	–
CN1CCN(Cc2ccc(NC(=O)N3CCc4ccc(Oc5c(F)cnc6[nH]c(C(=O)N(C)C)cc56)cc4C3)cc2C(F)(F)F)CC1 [XVIII-4]	< 500 nM	–
O=C(Nc1ccc(CN2CCNCC2)c(C(F)(F)F)c1)N1CCc2ccc(Oc3c(F)cnc4[nH]c(C5(O)CC5)cc34)cc2C1 [XVIII-5]	< 500 nM	–

SMILES	IC50 (Table 20)	IC50 (Table 19)
CN1CCN(Cc2ccc(NC(=O)N3CCc4ccc(Oc5c(F)cnc6[nH]c(C7(O)CC7)cc56)cc4C3)cc2C(F)(F)F)CC1 [XVIII-6]	< 500 nM	–
O=C(Nc1ccc(CN2CCNCC2)c(C(F)(F)F)c1)N1CCc2ccc(Oc3ccnc4[nH]c(C5(O)CC5)cc34)cc2C1 [XVIII-9]	< 500 nM	–
CN1CCN(Cc2ccc(NC(=O)N3CCc4ccc(Oc5ccnc6[nH]c(C7(O)CC7)cc56)cc4C3)cc2C(F)(F)F)CC1 [XVIII-10]	< 500 nM	–
CCN1CCN(Cc2ccc(NC(=O)N3CCc4cnc(Nc5ccnc6[nH]ccc56)nc4C3)cc2C(F)(F)F)CC1 [XVIII-11]	500 to 5000 nM	–
CN1CCN(Cc2ccc(NC(=O)N3Cc4cc(Oc5ccnc6[nH]c(C7(O)CC7)cc56)ccc4C(C(F)(F)F)C3)cc2C(F)(F)F)CC1 (stereo not drawn) [XVIII-12]	< 500 nM	–
CN1CCN(Cc2ccc(NC(=O)N3Cc4cc(Oc5ccnc6[nH]c(C(=O)N(C)C)cc56)ccc4C(C(F)(F)F)C3)cc2C(F)(F)F)CC1 (stereo not drawn) [XVIII-13]	< 500 nM	–
CN1CCN(Cc2ccc(NC(=O)N3Cc4cc(Oc5ccnc6[nH]ccc56)ccc4C(C(F)(F)F)C3)cc2C(F)(F)F)CC1 (stereo not drawn) [XVIII-14]	< 500 nM	–
CCN1CCN(Cc2ccc(NC(=O)N3Cc4cc(Oc5ccnc6[nH]ccc56)ccc4C(C(F)(F)F)C3)cc2C(F)(F)F)CC1 (stereo not drawn) [XVIII-15]	< 500 nM	–
CC[C@H]1Cc2ncc(Oc3ccnc4[nH]ccc34)cc2CN1C(=O)Nc1ccc(CN2CCN(CC)CC2)c(C(F)(F)F)c1 [XVIII-16]	< 500 nM	–
CC[C@@H]1Cc2ncc(Oc3ccnc4[nH]ccc34)cc2CN1C(=O)Nc1ccc(CN2CCN(CC)CC2)c(C(F)(F)F)c1 [XVIII-17]	< 500 nM	–
CCN1CCN(Cc2ccc(NC(=O)N3Cc4cc(Oc5ccnc6[nH]ccc56)cnc4C[C@@H]3C)cc2C(F)(F)F)CC1 [XVIII-18]	< 500 nM	–
CCN1CCN(Cc2ccc(NC(=O)N3Cc4cc(Oc5ccnc6[nH]ccc56)cnc4C[C@H]3C)cc2C(F)(F)F)CC1 [XVIII-19]	< 500 nM	–
CCN1CCN(Cc2ccc(NC(=O)N3CCc4ccc(Oc5ncnn6cccc56)cc4C3)cc2C(F)(F)F)CC1 [compound 1, N-[4-[(4-Ethylpiperazin-1-yl)methyl]-3-(trifluoromethyl)phenyl]-7-[pyrrolo[2,1-f][1,2,4]triazin-4-yloxy]-1,2,3,4-tetrahydroisoquinoline-2-carboxamide]	–	< 500 nM
CCN1CCN(Cc2ccc(NC(=O)N3CCc4ccc(Oc5ccnc6[nH]ccc56)cc4C3)cc2C(F)(F)F)CC1 [compound 2, 7-((1H-Pyrrolo[2,3-b]pyridin-4-yl)oxy)-N-(4-((4-ethylpiperazin-1-yl)methyl)-3-(trifluoromethyl)phenyl)-3,4-dihydroisoquinoline-2(1H)-carboxamide]	–	< 500 nM
CCN1CCN(Cc2ccc(NC(=O)N3CCc4cc(F)c(Oc5ccnc6[nH]ccc56)cc4C3)cc2C(F)(F)F)CC1 [compound 3, 7-((1H-Pyrrolo[2,3-b]pyridin-4-yl)oxy)-N-(4-((4-ethylpiperazin-1-yl)methyl)-3-(trifluoromethyl)phenyl)-6-fluoro-3,4-dihydroisoquinoline-2(1H)-carboxamide]	–	< 500 nM
CCN1CCN(Cc2ccc(NC(=O)N3Cc4cc(Oc5ccnc6[nH]ccc56)c(F)cc4C(C)C3)cc2C(F)(F)F)CC1 (stereo not drawn) [compound 4, 7-((1H-pyrrolo[2,3-b]pyridin-4-yl)oxy)-N-(4-((4-ethylpiperazin-1-yl)methyl)-3-(trifluoromethyl)phenyl)-6-fluoro-4-methyl-3,4-dihydroisoquinoline-2(1H)-carboxamide]	–	< 500 nM
CCN1CCN(Cc2ccc(NC(=O)N3CCc4ccc(Oc5ccnc6[nH]ccc56)cc4[C@@H]3C)cc2C(F)(F)F)CC1 [compound 6, (S)-7-((1H-Pyrrolo[2,3-b]pyridin-4-yl)oxy)-N-(4-((4-ethylpiperazin-1-yl)methyl)-3-(trifluoromethyl)phenyl)-1-methyl-3,4-dihydroisoquinoline-2(1H)-carboxamide]	–	< 500 nM
C[C@H]1c2cc(Oc3ccnc4[nH]ccc34)ccc2CCN1C(=O)Nc1cnc(OC2CCN(C)CC2)c(C(F)(F)F)c1 [compound 7, (S)-7-((1H-pyrrolo[2,3-b]pyridin-4-yl)oxy)-1-methyl-N-(6-((1-methylpiperidin-4-yl)oxy)-5-(trifluoromethyl)pyridin-3-yl)-3,4-dihydroisoquinoline-2(1H)-carboxamide]	–	< 500 nM
